Tests used:
[1] = refractive index (Na D-line) (dimensionless); xn = mol fraction of the nth substance listed; details: 101 kPa, Liquid, Standard Abbe refractometry
[2] = relative permittivity at zero frequency (dimensionless); xn = mol fraction of the nth substance listed; details: 101 kPa, Liquid, Parallel plate capacitor

COCCOCCOCCOCCOC [2,5,8,11,14-pentaoxapentadecane] + CCCCCCCC
Details | refractive index, 293.15 K | refractive index, 298.15 K | refractive index, 303.15 K | relative permittivity at zero frequency, 293.15 K | relative permittivity at zero frequency, 298.15 K | relative permittivity at zero frequency, 303.15 K
[1], x1 = 0.0503 | 1.3993 | 1.3969 | 1.3946 | – | – | –
[1], x1 = 0.1003 | 1.4011 | 1.3987 | 1.3965 | – | – | –
[1], x1 = 0.1515 | 1.4031 | 1.4007 | 1.3985 | – | – | –
[1], x1 = 0.2061 | 1.4052 | 1.4028 | 1.4006 | – | – | –
[1], x1 = 0.245 | 1.4067 | 1.4043 | 1.4021 | – | – | –
[1], x1 = 0.305 | 1.4091 | 1.4067 | 1.4045 | – | – | –
[1], x1 = 0.3569 | 1.4111 | 1.4087 | 1.4065 | – | – | –
[1], x1 = 0.4054 | 1.4127 | 1.4106 | 1.4084 | – | – | –
[1], x1 = 0.4487 | 1.4144 | 1.4122 | 1.41 | – | – | –
[1], x1 = 0.5043 | 1.4163 | 1.4142 | 1.4121 | – | – | –
[1], x1 = 0.5537 | 1.4182 | 1.4159 | 1.4138 | – | – | –
[1], x1 = 0.5963 | 1.4195 | 1.4173 | 1.4151 | – | – | –
[1], x1 = 0.6473 | 1.4213 | 1.4191 | 1.417 | – | – | –
[1], x1 = 0.693 | 1.4228 | 1.4208 | 1.4186 | – | – | –
[1], x1 = 0.7515 | 1.4248 | 1.4227 | 1.4207 | – | – | –
[1], x1 = 0.8067 | 1.4268 | 1.4248 | 1.423 | – | – | –
[1], x1 = 0.8475 | 1.4281 | 1.426 | 1.4239 | – | – | –
[1], x1 = 0.8941 | 1.4295 | 1.4275 | 1.4256 | – | – | –
[1], x1 = 0.947 | 1.431 | 1.429 | 1.4271 | – | – | –
[2], x1 = 0.033 | – | – | – | 2.107 | 2.098 | 2.088
[2], x1 = 0.0659 | – | – | – | 2.254 | 2.242 | 2.23
[2], x1 = 0.0998 | – | – | – | 2.413 | 2.398 | 2.382
[2], x1 = 0.133 | – | – | – | 2.577 | 2.558 | 2.538
[2], x1 = 0.1645 | – | – | – | 2.736 | 2.715 | 2.693
[2], x1 = 0.2003 | – | – | – | 2.922 | 2.896 | 2.87
[2], x1 = 0.2488 | – | – | – | 3.19 | 3.158 | 3.126
[2], x1 = 0.3002 | – | – | – | 3.476 | 3.438 | 3.4
[2], x1 = 0.3486 | – | – | – | 3.762 | 3.718 | 3.675
[2], x1 = 0.3951 | – | – | – | 4.03 | 3.981 | 3.931
[2], x1 = 0.4461 | – | – | – | 4.347 | 4.291 | 4.234
[2], x1 = 0.5092 | – | – | – | 4.738 | 4.674 | 4.61
[2], x1 = 0.5516 | – | – | – | 5.005 | 4.937 | 4.867
[2], x1 = 0.6003 | – | – | – | 5.313 | 5.238 | 5.163
[2], x1 = 0.6409 | – | – | – | 5.578 | 5.499 | 5.42
[2], x1 = 0.693 | – | – | – | 5.909 | 5.823 | 5.736
[2], x1 = 0.7072 | – | – | – | 6.004 | 5.916 | 5.827
[2], x1 = 0.7515 | – | – | – | 6.298 | 6.205 | 6.111
[2], x1 = 0.8002 | – | – | – | 6.622 | 6.523 | 6.421
[2], x1 = 0.8461 | – | – | – | 6.943 | 6.838 | 6.732
[2], x1 = 0.8985 | – | – | – | 7.279 | 7.168 | 7.057
[2], x1 = 0.9441 | – | – | – | 7.585 | 7.469 | 7.351

COCCOCCOCCOCCOC [2,5,8,11,14-pentaoxapentadecane] + CCCCCO
Details | refractive index, 293.15 K | refractive index, 298.15 K | refractive index, 303.15 K | relative permittivity at zero frequency, 293.15 K | relative permittivity at zero frequency, 298.15 K | relative permittivity at zero frequency, 303.15 K
[1], x2 = 0.0505 | 1.4319 | 1.4302 | 1.4279 | – | – | –
[1], x2 = 0.1002 | 1.4315 | 1.4294 | 1.4273 | – | – | –
[1], x2 = 0.1509 | 1.4305 | 1.4286 | 1.4265 | – | – | –
[1], x2 = 0.1919 | 1.4301 | 1.4281 | 1.4259 | – | – | –
[1], x2 = 0.2458 | 1.4291 | 1.4272 | 1.4251 | – | – | –
[1], x2 = 0.291 | 1.4285 | 1.4265 | 1.4244 | – | – | –
[1], x2 = 0.3384 | 1.4276 | 1.4256 | 1.4236 | – | – | –
[1], x2 = 0.3986 | 1.4265 | 1.4246 | 1.4225 | – | – | –
[1], x2 = 0.4554 | 1.4256 | 1.4235 | 1.4215 | – | – | –
[1], x2 = 0.493 | 1.4248 | 1.4229 | 1.4207 | – | – | –
[1], x2 = 0.5496 | 1.4236 | 1.4217 | 1.4196 | – | – | –
[1], x2 = 0.5931 | 1.4227 | 1.4207 | 1.4186 | – | – | –
[1], x2 = 0.6455 | 1.4214 | 1.4194 | 1.4174 | – | – | –
[1], x2 = 0.6979 | 1.42 | 1.4181 | 1.416 | – | – | –
[1], x2 = 0.7424 | 1.4188 | 1.4168 | 1.4148 | – | – | –
[1], x2 = 0.7959 | 1.4172 | 1.4153 | 1.4133 | – | – | –
[1], x2 = 0.8372 | 1.4159 | 1.4141 | 1.4121 | – | – | –
[1], x2 = 0.8679 | 1.4149 | 1.4131 | 1.4111 | – | – | –
[1], x2 = 0.8987 | 1.4139 | 1.4121 | 1.41 | – | – | –
[1], x2 = 0.9225 | 1.413 | 1.4112 | 1.4092 | – | – | –
[1], x2 = 0.9488 | 1.412 | 1.4102 | 1.4081 | – | – | –
[1], x2 = 0.9793 | 1.4109 | 1.409 | 1.407 | – | – | –
[2], x2 = 0.0505 | – | – | – | 7.99 | 7.863 | 7.737
[2], x2 = 0.1002 | – | – | – | 7.97 | 7.843 | 7.715
[2], x2 = 0.1509 | – | – | – | 8.043 | 7.911 | 7.779
[2], x2 = 0.1919 | – | – | – | 8.041 | 7.906 | 7.771
[2], x2 = 0.2458 | – | – | – | 8.132 | 7.993 | 7.854
[2], x2 = 0.291 | – | – | – | 8.15 | 8.009 | 7.866
[2], x2 = 0.3384 | – | – | – | 8.271 | 8.119 | 7.968
[2], x2 = 0.3986 | – | – | – | 8.344 | 8.186 | 8.029
[2], x2 = 0.4554 | – | – | – | 8.523 | 8.35 | 8.18
[2], x2 = 0.493 | – | – | – | 8.615 | 8.438 | 8.26
[2], x2 = 0.5496 | – | – | – | 8.857 | 8.662 | 8.469
[2], x2 = 0.5931 | – | – | – | 9.027 | 8.819 | 8.615
[2], x2 = 0.6455 | – | – | – | 9.353 | 9.122 | 8.896
[2], x2 = 0.6979 | – | – | – | 9.71 | 9.454 | 9.203
[2], x2 = 0.7424 | – | – | – | 10.138 | 9.853 | 9.577
[2], x2 = 0.7959 | – | – | – | 10.73 | 10.413 | 10.103
[2], x2 = 0.8372 | – | – | – | 11.351 | 10.992 | 10.643
[2], x2 = 0.8679 | – | – | – | 11.894 | 11.506 | 11.123
[2], x2 = 0.8987 | – | – | – | 12.519 | 12.102 | 11.691
[2], x2 = 0.9225 | – | – | – | 13.119 | 12.665 | 12.217
[2], x2 = 0.9488 | – | – | – | 13.878 | 13.383 | 12.896
[2], x2 = 0.9793 | – | – | – | 14.929 | 14.377 | 13.834
